Reference: patent US20240174618A1, “SUBSTITUTED (2-HETEROARYLOXYPHENYL)SULFONATES, SALTS THEREOF AND THEIR USE AS HERBICIDAL AGENTS” (Bayer Aktiengesellschaft, priority 2021, published 2024)

Assays:
Assay type in all cases: in vivo
[1] = system: Kochia scoparia (KCHSC); assay: B. Herbicidal post-emergence efficacy, KCHSC; conditions: for Post-emergence efficacy against KCHSC in %: rated visually after about 3 weeks; for Post-emergence efficacy against KCHSC: 1280 g/ha
Method in brief: (§1)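 Post-emergence foliar spray, at application rates of 1280 g/ha or less, on one-leaf-stage plants 2–3 weeks post-sowing, using aqueous WP or EC suspensions with 0.5% additive at 600 L/ha. Visual percent efficacy relative to untreated plants scored roughly 3 weeks later in the greenhouse.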

[2] = system: Digitaria sanguinalis (DIGSA); assay: C. Herbicidal pre-emergence efficacy, DIGSA; conditions: scored after about 3 weeks
Method in brief: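 Pre-emergence test: formulated compounds sprayed as aqueous suspension or emulsion with 0.5% additive at 600 l/ha onto soil covering sown seeds, at rates corresponding to 320 g/ha or less. After about 3 weeks in greenhouse, efficacy scored visually as percent versus untreated controls (100% = plants dead).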

[3] = system: Kochia scoparia (KCHSC); assay: E. Herbicidal post-emergence efficacy, KCHSC
Method in brief: (§2)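 Visual scoring against untreated plants was done roughly 3 weeks after spraying (0% = no effect, 100% = plants dead). Spray application at 320 g/ha or lower, 600 l/ha water with 0.5% additive, was made onto green parts of one-leaf-stage greenhouse plants grown 2-3 weeks in sandy loam.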

[4] = system: Matricaria inodora (MATIN); assay: A. Herbicidal pre-emergence efficacy, MATIN
Method in brief: (§3)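 Applied before emergence onto covering soil at rates of 1280 g/ha or less, using 600 L/ha spray water with 0.5% additive. Scoring: visual % efficacy after ~3 weeks, greenhouse.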

[5] = system: Alopecurus myosuroides (ALOMY); assay: A. Herbicidal pre-emergence efficacy, ALOMY; conditions: scored visually after about 3 weeks vs untreated controls
Method in brief: as §3

[6] = system: Amaranthus retroflexus (AMARE); assay: A. Herbicidal pre-emergence efficacy, AMARE
Method in brief: as §3

[7] = system: Amaranthus retroflexus (AMARE); assay: E. Herbicidal post-emergence efficacy, AMARE
Method in brief: as §2

[8] = system: Echinochloa crus-galli (ECHCG); assay: B. Herbicidal post-emergence efficacy, ECHCG; conditions: rated visually after about 3 weeks
Method in brief: as §1

[9] = 320 g/ha, scored visually after about 3 weeks vs untreated controls
[10] = pre-emergence, dosage 1280 g/ha

Structure (SMILES)	Post-emergence efficacy against KCHSC in % ([1]; 80 g/ha)	Post-emergence efficacy against KCHSC in % ([1]; 320 g/ha)	Post-emergence efficacy against KCHSC [1]	Pre-emergence efficacy against DIGSA ([2]; 80 g/ha)	Pre-emergence efficacy against DIGSA ([2]; 320 g/ha)	Post-emergence efficacy against KCHSC in % ([3]; application rate 80 g/ha)	Post-emergence efficacy against KCHSC in % ([3]; application rate 320 g/ha)	Pre-emergence efficacy against MATIN [4, 9]	Pre-emergence efficacy against MATIN [4, 10]	Pre-emergence efficacy against ALOMY ([5]; 1280 g/ha)	Pre-emergence efficacy against AMARE in % ([6]; 320 g/ha)	Pre-emergence efficacy against AMARE in % ([6]; 1280 g/ha)	Post-emergence efficacy against AMARE in % ([7]; application rate 80 g/ha)	Post-emergence efficacy against AMARE in % ([7]; application rate 320 g/ha)	Post-emergence efficacy against ECHCG in % ([8]; 320 g/ha)	Post-emergence efficacy against ECHCG in % ([8]; 1280 g/ha)	Pre-emergence efficacy against ALOMY ([5]; 320 g/ha)	Pre-emergence efficacy against AMARE in % ([6]; 80 g/ha)	Post-emergence efficacy against ECHCG in % ([8]; 80 g/ha)
O=S(=O)(CCCC(F)(F)C(F)(F)F)Oc1c(F)cccc1Oc1ncc(Cl)cn1 [Example I-68]	100%	100%	100%	100%	100%	80%	90%	100%	100%	90%	100%	100%	90%	100%	90%	100%			
O=S(=O)(CCCC(F)(F)F)Oc1c(F)cccc1Oc1ncc(F)cn1 [Example I-42]	90%	100%	100%	100%	100%	90%	90%	90%	100%	100%	100%	100%	100%	100%	100%	100%	100%	100%	100%
Cc1cccc(Oc2ncc(F)cn2)c1OS(=O)(=O)CCC(F)(F)F [Example I-45]		90%	100%	100%	100%		90%		90%	100%	100%	100%		80%	100%	100%	90%	90%	
O=S(=O)(CCC(F)(F)F)Oc1c(Br)cccc1Oc1ncc(F)cn1 [Example I-43]	90%	90%	100%		100%	90%	100%		90%	90%	100%	100%	100%	100%	90%	90%		100%	
O=S(=O)(CCCC(F)(F)F)Oc1c(F)cccc1Oc1ncc(Cl)cn1 [Example I-49]	90%	90%	100%	100%	100%	100%	100%	100%	100%	90%	100%	100%	100%	100%	90%	90%		90%	90%
O=S(=O)(CCC(F)(F)F)Oc1c(Cl)cccc1Oc1ncc(Br)cn1 [Example I-32]	100%	100%	100%		100%	90%	100%		90%	90%	90%	100%	100%	100%	90%	100%		90%	90%
O=S(=O)(CC1CC(F)(F)C1)Oc1c(F)cccc1Oc1ncc(Cl)cn1 [Example I-53]	90%	90%	90%	100%	100%	90%	90%		100%	100%	100%	100%	100%	100%	90%	90%		100%	90%
O=S(=O)(CCC(F)(F)F)Oc1c(F)cccc1Oc1ncc(Cl)cn1 [Example I-48]	90%	90%	90%	100%	100%	100%	100%	100%	100%	90%	90%	100%	100%	100%	90%	90%	90%	90%	
